Measured values from patent publication US7465448B2, “Chemokine receptor antagonists as therapeutic agents” (Medical College of Georgia Research Institute, Inc., priority 2002, dated 2008).
Entries after “also recorded” stand apart in the source; their conditions may differ.

Columns and labels:
IDO [1] = assay: MLR with sorted mouse tumor-draining lymph node cell fractions and BM3 T cell responders, with or without 1MT; format: cell-based
From the text: (§1) Lymph node (LN) cells were harvested from inguinal LNs draining established B78.GM tumors. Control cells were harvested from the contralateral inguinal nodes in the same mouse. LN cells were irradiated and used as stimulators in allo-MLRs, with the responder cells being TCR-transgenic CD8^+ T cells from BM3 mice, as BM3 T cells recognize H-2K^b as an alloantigen (Tarazona, R., et al., Int. Immunol., 8:351-358, (1996)), and thus are reactive with all MHC class I positive cells from C57BL/6 tumor-bearing hosts. These cells are known by those of skill in the art to be a recognized assay system for IDO-mediated suppression of the T cell response (Munn, D. H., et al., Science, 297:1867-1870, (2002); Lee et al., Immunol., 107:1-9, (2002)). […] To determine the etiology of T cell suppression by APCs, tumor draining lymph node cells were harvested from B78.GM tumors and sorted into a B220^+ CD11c^+ plasmacytoid dendritic cell (pDC) fraction and a CD25^+CD4^+ regulatory T-cell (Treg) fraction. A third “all other” fraction was also collected. Each fraction was used as stimulators in an MLR with BM3 responders. […] Pooled draining LN cells (4 nodes) were stained and fractionated by 4-color cell sorting for the two populations shown in the top schematic. All other cells were collected in a third fraction. Each fraction was then used as stimulators in MLRs (FIG. 13), using 50,000 BM3 T cells as responders. The number of stimulators used in each MLR was adjusted to be the same as would have been present in 50,000 cells of the original LN preparation, based on the measured percentage of each sorted fraction. Thus, in the experiment shown, 500 cells of the sorted B220^+ CD11c^+ fraction were added per well, and 1500 cells of the CD25^+ CD4^+ fraction, while 48,000 cells of the “all other” fraction were used.

IDO [2] = target: T1, IDO (Mus musculus, UniProt P28776); assay: as above; format: cell-based; conditions: wild-type host, B78.GM tumor-draining LN
T1 construct: from tissue; host or cells: tumor-draining inguinal lymph node cells (sorted fractions) of C57BL/6 mice bearing B78.GM tumors
T1 sequence (P28776 whole entry): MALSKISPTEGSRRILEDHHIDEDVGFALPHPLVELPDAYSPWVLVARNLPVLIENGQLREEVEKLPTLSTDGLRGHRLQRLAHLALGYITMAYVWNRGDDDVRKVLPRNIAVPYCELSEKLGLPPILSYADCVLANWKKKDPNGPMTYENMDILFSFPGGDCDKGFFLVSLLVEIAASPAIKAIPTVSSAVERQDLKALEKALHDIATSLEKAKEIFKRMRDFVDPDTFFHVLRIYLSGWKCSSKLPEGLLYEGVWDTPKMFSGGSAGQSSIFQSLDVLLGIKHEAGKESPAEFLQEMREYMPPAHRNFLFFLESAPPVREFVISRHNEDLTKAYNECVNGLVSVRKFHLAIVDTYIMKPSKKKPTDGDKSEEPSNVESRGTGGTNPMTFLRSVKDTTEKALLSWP
From the text: as §1

CCR6 receptor = target: T2, CCR6 receptor (Homo sapiens, UniProt P51684); assay: Mip-3α gradient migration of mixed DCs with or without blocking anti-CCR6 antibody (Example 9); format: cell-based
T2 construct: a mixture of both CD123-positive (CCR6-positive) and CD123-negative (CCR6-negative) cells; endogenous in cells; host or cells: human monocyte-derived dendritic cells (mixed adherent and non-adherent fractions)
T2 sequence (P51684 1-374): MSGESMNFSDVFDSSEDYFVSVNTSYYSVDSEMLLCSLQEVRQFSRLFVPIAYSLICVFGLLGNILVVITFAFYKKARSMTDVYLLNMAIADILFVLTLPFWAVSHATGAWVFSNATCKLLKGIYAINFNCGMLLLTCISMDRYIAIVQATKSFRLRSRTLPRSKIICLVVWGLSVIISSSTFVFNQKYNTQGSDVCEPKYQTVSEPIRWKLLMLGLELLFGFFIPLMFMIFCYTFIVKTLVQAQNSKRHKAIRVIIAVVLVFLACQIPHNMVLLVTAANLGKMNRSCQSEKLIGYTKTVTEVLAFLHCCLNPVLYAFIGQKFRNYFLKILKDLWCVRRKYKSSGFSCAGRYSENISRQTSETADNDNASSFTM
From the text: Monocyte-derived human dendritic cells (adherent and non-adherent fractions) were harvested and pooled, as described in Example 8, yielding a preparation comprising a mixture of both CD123-positive (CCR6-positive) and CD123-negative (CCR6-negative) cells. In Example 8, it was shown that a gradient of mip-3α caused selective migration of the CD123+ (CCR6+) population.
The mixed population of DCs was allowed to migrate across a porous membrane in response to a gradient of mip-3alpha, as described in Example 8. Different treatment groups received a commercial anti-CCR6 antibody (10 ug/ml), an isotype-matched control antibody at the same concentration, or no antibody. After 18 hrs, migrating cells (recovered in the lower chamber of the chemotaxis assay apparatus) were harvested, counted, and analyzed by flow cytometry for CD123 expression. CD123 was used as a marker to identify the IDO-expressing population, rather than CCR6, because the anti-CCR6 blocking antibody could artifactually interfere with immunofluorescent staining for CCR6. Since both markers are co-expressed on the IDO+ cells with a one-to-one correspondence, either marker gives equivalent information.

CCR6^+/IDO^+ APCs = assay: Mip-3α-induced chemotaxis of dendritic cells, upper/lower chamber (Example 8); format: cell-based, human; conditions: 0.5×10^6 DCs/well, after 4 hours
Procedure: In this experiment, mip-3α-induced chemotaxis of CCR6^+/IDO^+ APCs was measured. Dendritic cells matured with a cytokine cocktail as described herein were used for a chemotaxis assay with mip-3α as the chemoattractant. Thus, monocytes were cultured in serum free medium (X-Vivo15) for five days in the presence of GMCSF (50 ng/mL) and IL-4 (50 ng/mL). After five days, cells were treated with a cytokine cocktail consisting of IL-1β (1870 U/mL), IL-6 (1000 U/mL), TNFα (1100 U/mL) and prostaglandin E2 (PGE2; 1.0 μg/mL), for two days. The cells were harvested and used for the chemotaxis assay. Control starting DCs were immunostained for CD123 and CCR6 (“Pre-Chemotaxis DCs”).
Mip-3α (0.5 μg/mL) was added to the different chambers and a defined number of DCs (0.5×10^6/well) were put on the upper chamber. After 4 hours, cells were counted in lower chamber of each group (Table 2). FACS immunostain was performed on all groups for CCR6 and CD123 (FIG. 7). […] Migration required a gradient of mip-3α from the upper chamber to the lower chamber, consistent with ligand induced chemotaxis.

CXCR4 = target: T3, CXCR4 (Homo sapiens, UniProt P61073); assay: Yeast (S. cerevisiae) pheromone-pathway signaling assay with expressed CXCR4; format: cell-based; conditions: yeast strains expressing CXCR4-WT; not in control cells lacking the receptor
T3 construct: expressed in transfected cells; host or cells: Saccharomyces cerevisiae, CXCR4 subcloned in the Cp4258 vector, coupled through a mammalian/yeast hybrid G subunit
T3 sequence (P61073 whole entry, species assumed): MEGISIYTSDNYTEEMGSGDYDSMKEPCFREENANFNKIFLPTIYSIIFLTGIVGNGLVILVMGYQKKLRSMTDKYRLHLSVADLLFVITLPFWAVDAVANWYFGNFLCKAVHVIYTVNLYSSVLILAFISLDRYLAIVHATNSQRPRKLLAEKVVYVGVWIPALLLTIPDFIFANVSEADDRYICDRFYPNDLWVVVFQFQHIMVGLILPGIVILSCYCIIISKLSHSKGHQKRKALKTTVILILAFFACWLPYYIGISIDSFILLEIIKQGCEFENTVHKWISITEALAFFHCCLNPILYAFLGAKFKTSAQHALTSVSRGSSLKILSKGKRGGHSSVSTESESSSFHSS
From the text: For example, CCR6 can be functionally expressed in S. cerevisiae for the purpose of screening putative antagonists and for generating constitutively active mutants (CAMs). Similar studies have been performed by the inventors using related […] receptors CXCR4 and CCR5. Thus, chemokine receptors CXCR4 and CCR5 were expressed in a yeast strain in which these guanine nucleotide protein receptors (GPRs) were coupled to the mating pheromone response pathway by a mammalian/yeast hybrid G subunit. Consequently, stimulation of CXCR4 and CCR5 by the cognate ligands (SDF-1 and RANTES, respectively) activated signal transduction that results in histidine prototrophy or, in strains also carrying a pheromone-responsive FUS1-lacZ reporter gene, beta-galactosidase expression. In these experiments, SDF-1 stimulated histidine-independent growth and reporter gene expression in yeast strains expressing CXCR4-WT, but not in control cells lacking the receptor. […] All available CXCR4 antagonists blocked growth in histidine deficient medium resulting from CXCR4 activation and the induction of reporter gene expression stimulated by SDF-1.

Cn1cc(CC(N)C(=O)O)c2ccccc21 (centres unmarked) [1-MT, 1-methyl-(D,L)-tryptophan]
Effect on MLR with LN fractions from IDO-knockout host (IDO [1]; IDO-KO host, any group): no enhancing effect
Suppression mediated by CD25+ CD4+ Tregs (IDO [1]; wild-type host, B78.GM tumor-draining LN): not affected
IDO-mediated suppression in mixing experiments (pDCs plus "all other" fraction) (IDO [2]): can be fully reversed; also recorded: again fully reversed
Suppression by B220+ CD11c+ (pDC) fraction (IDO [2]): fully reversed

Mip-3α: chemokine, ligand for the CCR6 chemokine receptor; chemotactic factor for immature dendritic cells
Increase of migration of CD123+ cells (CCR6 receptor; gradient of mip-3α, 18 hrs): > 10 fold
Purity of CD123+ cells in migrated population (CCR6 receptor; gradient of mip-3α, starting population 68% CD123+): 96%
Mip-3α induced migration without gradient (CCR6 receptor; mip-3α present on both sides of the membrane): substantially reduced
Number of Cells in Lower Chamber (CCR6^+/IDO^+ APCs; Mip-3α (0.5 μg/mL) in lower chamber only (gradient)): 2.96
Number of Cells in Lower Chamber (CCR6^+/IDO^+ APCs; Mip-3α (0.5 μg/mL) in upper and lower chamber): 0.98
Number of Cells in Lower Chamber (CCR6^+/IDO^+ APCs; Mip-3α (0.5 μg/mL) in upper chamber only): 0.73

SDF-1: cognate ligand of CXCR4
Histidine-independent growth and reporter gene expression (CXCR4): stimulated
